SMILES strings stand for the structures.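 How tested: cells in 96-well plates exposed to compound for 48 hours at five concentrations. GI50: concentration for 50% inhibition of growth. TGI: concentration producing complete growth inhibition.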

Common to all, as to test: NCI tumour cell line growth inhibition, 48 h
In experiment [1] the test system is MCF7 breast.
For experiment [2], the system named is RPMI-8226 leukemia.
Experiment [3] concerns PC-3 prostate.
In experiment [4] the test system is CAKI-1 renal.
Experiment [5] deals with SR leukemia.
For experiment [6], the system named is ACHN renal.
In experiment [7] the test system is DU-145 prostate.
In experiment [8] the test system is MDA-MB-435.
Experiment [9] relates to HCT-15 colon.
For experiment [10], the system named is HS 578T breast.

In the case of `COc1ccc([N+](=O)[O-])cc1[I+]c1cc([N+](=O)[O-])ccc1OC`, the TGI in experiment [1] is above 100 µM; in [2] it was above 100 µM; in experiment [3] it was above 100 µM; in [4], above 100 µM; in experiment [5] it was 26.7 µM; in [6] it was above 100 µM. Moreover, the TGI in experiment [7] was above 100 µM; in experiment [8] it was 49.3 µM; in experiment [9], above 100 µM; in experiment [10], above 100 µM.

On to `O=C(Nc1ccc(-n2cc(-c3ccncc3)c(-c3ccc(O)c(Cl)c3)n2)cc1)c1ccc(Cl)c(Cl)c1`, for which the GI50 in experiment [1] is 2040 nM; in experiment [2], 537 nM; in experiment [3] it was 1350 nM; in [4], 2210 nM; in experiment [5], 1190 nM; in experiment [6], 1340 nM. Also, the GI50 in experiment [7] is 3910 nM; in [8], 2060 nM; in experiment [9] it was 708 nM; in experiment [10] it was 791 nM. In addition, the TGI is above 32.5 µM in experiment [1]; 1.44 µM in experiment [2]; above 32.5 µM in experiment [3]; above 32.5 µM in [4]; above 32.5 µM in experiment [5]; above 32.5 µM in [6]. The TGI in experiment [7], in [8], in experiment [9] and in experiment [10] was above 32.5 µM throughout.

As to `CCCCC[C@H]1CC=CC(=O)O1`, the TGI in experiment [1] turned out to be 19.6 µM; in experiment [2], 19.3 µM; in [3], 69.3 µM; in experiment [4], 10.4 µM; in [5] it was 15.4 µM; in [6], 43.6 µM. Further, the TGI in experiment [7] is 36.1 µM; in experiment [8], 23 µM; in [9], 20.9 µM; in [10], 50.6 µM.

As for `COc1cccc(/C=N/[N-]C(N)=O)c1[O-].[OH3+].[Zn+2]`, the TGI in experiment [2], in experiment [4], in experiment [5], in experiment [6] and in experiment [9] was above 100 µM throughout.

With `NC(=O)OCc1c(O)c2c(c(O)c1COC(N)=O)C(=O)C=CC2=O`, the TGI in [2], in [4], in [5], in [6] and in [9] was above 100 µM in each case.

For `Cc1ccc(CCCC(=O)O)cc1C`, the TGI in experiment [2], in experiment [3], in [4], in [5], in experiment [6] and in experiment [7] was above 100 µM each time. Also, the TGI in experiment [8] and in experiment [9] was above 100 µM each time.

Take `CSc1nc(NC2OC(CO)C(O)C(O)C2O)c(N)c(=O)n1C` (stereo unspecified): the TGI in [1], in [2] and in experiment [9] was above 100 µM throughout.

Consider `O=C1c2ccccc2-c2ccc(N(Cc3ccc(Br)cc3)Cc3ccc(Br)cc3)cc21`, for which the TGI in [1], in [2], in [3], in [4], in [5] and in [6] was above 100 µM in each case. Besides, the TGI in experiment [7], in experiment [8], in experiment [9] and in experiment [10] was above 100 µM in each case.

With `CCCCCCCCCCCCCCCc1ccc(C(=O)C[n+]2ccccc2)cc1`, the GI50 was 1230 nM in [3]; 1010 nM in [4]; 1010 nM in [6]; 1200 nM in [7]; 1030 nM in experiment [9]; 1750 nM in experiment [10]. Moreover, the TGI is 3.77 µM in experiment [3]; 3.45 µM in [4]; 2.22 µM in [6]; 2.44 µM in experiment [7]; 2.56 µM in [9]; 4.25 µM in experiment [10].

As to `CCOC(=O)c1c(C)n(-c2ccc(C)cc2)c2c1cc(O)c1[nH]c3c(c12)CCCC3`, the TGI is 65.6 µM in experiment [1]; 24.8 µM in experiment [2]; 52.3 µM in [3]; above 100 µM in [4]; 11.5 µM in experiment [5]; above 100 µM in experiment [6]. Moreover, the TGI in experiment [7] was 42.5 µM; in [8] it was 62.2 µM; in experiment [9], above 100 µM.

Regarding `O=C(c1no[n+]([O-])c1C(=O)c1csc2ccccc12)c1csc2ccccc12`, the TGI in experiment [1] was found to be 25 µM; in experiment [2], 1.95 µM; in [3], 8.33 µM; in experiment [4], 2.23 µM; in experiment [5] it was 0.27 µM; in experiment [6] it was 16 µM. Further, the TGI in experiment [7] was 32.3 µM; in [8] it was 21.5 µM; in experiment [9], 21.7 µM; in experiment [10] it was above 57.3 µM.

On to `COc1ccc(C2C(Cl)C(=O)N2NC(=O)c2ccc(NC(C)=O)cc2)cc1OC` (stereo unspecified), for which the TGI in experiment [2], in experiment [5] and in experiment [6] was above 100 µM in each case.

Turning to `CNC1=C(C)C(=O)C2=C(C1=O)C(COC(N)=O)C1(OC)C3NC3CN21` (stereo unspecified), the TGI in [1] is 10.6 µM; in experiment [2] it was 66.7 µM; in [3] it was 41.8 µM; in [4] it was 2.78 µM; in [5] it was above 100 µM; in experiment [8] it was 5.67 µM. Further, the TGI in experiment [9] worked out at 3.52 µM; in [10], 30.5 µM.

`N=C(N)c1ccc(-c2ccc(-c3ccccc3)o2)cc1`: the GI50 in experiment [2] was 2750 nM; in [3], 2280 nM; in [4] it was 2780 nM; in [5], 1670 nM; in experiment [6], 1670 nM; in experiment [7], 2720 nM. For the same compound, the results for the GI50 in experiment [8], in experiment [9] and in [10] were 1660 nM, 1640 nM and 2580 nM, respectively. Also, the TGI in experiment [2] is 7.29 µM; in experiment [3], 5.97 µM; in [4], 9.85 µM; in experiment [5], 5.29 µM; in [6] it was 3.26 µM; in experiment [7], 7.93 µM. The TGI stood at 3.03 µM in experiment [8], 3.24 µM in [9] and 7.04 µM in experiment [10].

As to `NC(N)=NCCCS(=O)(=O)Nc1ccc(Nc2c3ccccc3nc3cc([N+](=O)[O-])ccc23)cc1`, the TGI in experiment [1] was 87.7 µM; in experiment [2], 66.6 µM; in experiment [3], 67.9 µM; in [4], above 93.5 µM; in experiment [5] it was above 100 µM; in experiment [6], 63 µM. The TGI is 25.2 µM in experiment [7], above 100 µM in experiment [8], above 100 µM in [9] and 50.9 µM in experiment [10].

For the compound `CC(C)=CCC/C(C)=C/CC/C(C)=C/C(O)c1ccccc1` (stereo unspecified), the TGI was 49.5 µM in experiment [2]; above 10 µM in experiment [4]; 44.1 µM in experiment [5]; 31.2 µM in experiment [6]; 32.8 µM in [9].

For `CC(C)c1cccc(C(C)C)c1NC(=S)Nc1ccccc1`, the TGI in experiment [2], in experiment [5], in experiment [6] and in experiment [9] was above 100 µM each time.

Turning to `CC(=O)Nc1ccc2c(c1)C(=Nc1ccc(C(=O)O)cc1)c1ccccc1-2`, the TGI in [1], in [2], in experiment [3], in experiment [4], in [6] and in [7] was above 100 µM throughout. In addition, the TGI in experiment [8], in experiment [9] and in [10] was above 100 µM throughout.

Consider `COC(=O)c1c(OC(C)=O)ccc2c1c1c(n2Cc2ccccc2)C(=O)c2ccccc2C1=O`, for which the TGI in experiment [1] was above 100 µM; in [2] it was 36.4 µM; in experiment [3], 59.8 µM; in experiment [4], 51.2 µM; in experiment [5] it was 64.5 µM; in experiment [6] it was above 100 µM. In addition, the TGI in experiment [7] worked out at 36.5 µM; in experiment [8], 35.8 µM; in experiment [9] it was 41.9 µM; in experiment [10], 48.3 µM.

In the case of `CCN(CC)CCSc1nc2c([N+](=O)[O-])cccc2[nH]1`, the TGI in experiment [2], in experiment [4] and in experiment [9] was above 100 µM throughout.

As to `N=C1SCCS1`, the TGI in [2], in experiment [4], in experiment [6] and in experiment [9] was above 100 µM each time.

`Nc1cccc2cc(S(=O)(=O)Nc3ccc(C(=O)O)cc3)ccc12`: the TGI in experiment [1], in [2], in [3], in [4], in experiment [5] and in experiment [6] was above 100 µM throughout. For the same compound, the TGI in [7], in [8], in [9] and in [10] was above 100 µM each time.

The values are drawn from PubChem BioAssay (NCI).
